In paper PMC6796961, “Bioinformatic and biochemical analysis of the key binding sites of the pheromone binding protein of Cyrtotrachelus buqueti Guerin-Meneville (Coleoptera: Curculionidea)” (PeerJ, 2019):

Assays:
Type in all cases: binding
CbuqPBP1 [1] = molecular target: T1, CbuqPBP1 (Cyrtotrachelus buqueti, UniProt A0A1B3IIF7, F69A); assay: competitive displacement of 1-NPN fluorescence
T1 construct: E. coli BL21(DE3), pET-28a(+); His-tag cut with enterokinase; about 400 bp insert, 16 kDa
T1 sequence (A0A1B3IIF7 17-143 F69A): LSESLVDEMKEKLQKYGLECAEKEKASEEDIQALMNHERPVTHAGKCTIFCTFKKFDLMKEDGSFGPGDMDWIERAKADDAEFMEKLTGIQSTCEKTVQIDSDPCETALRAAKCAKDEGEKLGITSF
From the text: (§1) competitive displacement of 1-NPN fluorescence on CbuqPBP1

CbuqPBP1 [2] = molecular target: T2, CbuqPBP1 (Cyrtotrachelus buqueti, UniProt A0A1B3IIF7); assay: competitive displacement of 1-NPN fluorescence; conditions: for IC50: read-out: IC50 (μM) / PBP1; for Ki: read-out: Ki (μM) / PBP1
T2 construct: E. coli BL21(DE3), pET-28a(+); His-tag cut with enterokinase; about 400 bp insert, 16 kDa
T2 sequence (A0A1B3IIF7 17-143): T1 sequence (A0A1B3IIF7 17-143 F69A)
From the text: as §1

CbuqPBP1 [3] = molecular target: T2, CbuqPBP1; assay: fluorescence titration, Scatchard plot
CbuqPBP1 [4] = molecular target: T3, CbuqPBP1 (Cyrtotrachelus buqueti, UniProt A0A1B3IIF7, H53A); assay: fluorescence titration, Scatchard plot
T3 construct: E. coli BL21(DE3), pET-28a(+); His-tag cut with enterokinase; about 400 bp insert, 16 kDa
T3 sequence (A0A1B3IIF7 17-143 H53A): T1 sequence (A0A1B3IIF7 17-143 F69A)

CbuqPBP1 [5] = molecular target: T1, CbuqPBP1; assay: fluorescence titration, Scatchard plot

Q: `c1ccc2scnc2c1` [benzothiazole] was tested. Which IC50 (CbuqPBP1 [1]) did it give?
A: The IC50 was 10.5 µM.

Q: What about the Ki (CbuqPBP1 [1]) of the same compound?
A: Its Ki is 7.3 µM.

Q: And the IC50 (CbuqPBP1 [2])?
A: The IC50 was 13.4 µM.

Q: What about the Ki (CbuqPBP1 [2]) of the same compound?
A: The Ki was 9.82 µM.

Q: For `c1ccc(Nc2cccc3ccccc23)cc1` [1-NPN], which Kd (CbuqPBP1 [3]) is on record?
A: Its Kd is 2.73 µM.

Q: What about the Kd (CbuqPBP1 [4]) of the same compound?
A: Its Kd is 3.35 µM.

Q: What about the Kd (CbuqPBP1 [5]) of the same compound?
A: Its Kd is 2.26 µM.

Q: Which IC50 (CbuqPBP1 [2]) does the source give for `C[C@@H]1CC[C@H]2C(C)(C)[C@H]3C[C@@]12CC[C@@]3(C)O` [cedrol] here?
A: The IC50 was 30 µM.

Q: What about the Ki (CbuqPBP1 [2]) of the same compound?
A: The Ki was 21.9 µM.

Q: Which results are given for `CCCCOC(=O)c1ccccc1C(=O)OCCCC` [dibutyl phthalate]?
A: IC50 (CbuqPBP1 [1]): 20 µM; Ki (CbuqPBP1 [1]): 13.9 µM
